This is an account of results in article PMC9504178 (Viruses, 2022).

In one test the test system is NL09 or NL11. It counts as cell-based, influenza A virus.
Another test deals with NL09 and NL11 strains. It counts as cell-based, influenza A virus.

The structures appear in SMILES notation.

As to `CN(C)C/C=C/C(=O)Nc1cc2c(Nc3ccc(F)c(Cl)c3)ncnc2cc1O[C@H]1CCOC1` [AF, afatinib], the “reduction of viral titers in hPCLSs” value with NL09 or NL11 was “more than 1000 fold”.
Turning to `CNC(=O)c1cc(Oc2ccc(NC(=O)Nc3ccc(Cl)c(C(F)(F)F)c3)c(F)c2)ccn1` [RG, regorafenib], in the test on NL09 or NL11, the “reduction of viral titers in hPCLSs” value is on record as “more than 1000 fold” and the “viral reduction in hPCLSs” value is on record as ~ 4 log10. Further, in the test with NL09 and NL11 strains, the “viral reduction in A549 cells” value is reported as ~ 2 log10.
As for `Cn1cc(-c2cc3c(N4CCN(c5ncc([C@@](C)(N)c6ccc(F)cc6)cn5)CC4)ncnn3c2)cn1` [AV, avapritinib], the “reduction of viral titers in hPCLSs” value with NL09 or NL11 is on record as ~ 10 fold.
